Active and inactive are the calls of the source. The rule behind the calls is not given here.
Columns and labels:
[1] = Dissociation constant was determined; assay type: physicochemical
[2] = Partition coefficient (logD); assay type: physicochemical; settings: octanol/water
GABA B receptor = GABA B receptor (Rattus norvegicus, UniProt O88871+Q9Z0U4); experiment: Displacement of [3H]GABA from Gamma-aminobutyric acid type B receptor in rat brain membranes; assay type: cell membranes
[3] = target: Gamma-aminobutyric acid receptor subunit rho-1 (Homo sapiens) (UniProt P24046); experiment: Inhibition of inward current in oocytes expressing human GABA-C receptor rho1 subunit (No inhibition); assay type: cell-based; settings: Oocyte
Sequence of Gamma-aminobutyric acid receptor subunit rho-1 (Homo sapiens) (P24046 whole entry): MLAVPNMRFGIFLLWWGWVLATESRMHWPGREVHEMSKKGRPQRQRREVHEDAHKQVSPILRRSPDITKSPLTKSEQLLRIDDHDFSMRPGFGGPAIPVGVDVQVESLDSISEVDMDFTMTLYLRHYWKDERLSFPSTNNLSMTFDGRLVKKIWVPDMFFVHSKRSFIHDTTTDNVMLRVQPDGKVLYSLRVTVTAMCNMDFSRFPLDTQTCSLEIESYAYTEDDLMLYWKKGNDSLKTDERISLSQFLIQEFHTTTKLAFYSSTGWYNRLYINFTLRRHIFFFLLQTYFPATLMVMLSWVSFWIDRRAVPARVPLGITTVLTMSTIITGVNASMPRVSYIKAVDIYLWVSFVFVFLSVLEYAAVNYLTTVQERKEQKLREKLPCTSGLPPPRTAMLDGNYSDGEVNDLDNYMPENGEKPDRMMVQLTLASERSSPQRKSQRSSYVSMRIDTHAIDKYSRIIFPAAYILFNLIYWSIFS

[4] = target: Gamma-aminobutyric acid receptor subunit rho-1 (Homo sapiens) (UniProt P24046); experiment: Inhibition of inward current in oocytes expressing human GABA-C receptor rho1 subunit; assay type: cell-based; settings: Oocyte

Sequence of GABA B receptor (Q9Z0U4 whole entry): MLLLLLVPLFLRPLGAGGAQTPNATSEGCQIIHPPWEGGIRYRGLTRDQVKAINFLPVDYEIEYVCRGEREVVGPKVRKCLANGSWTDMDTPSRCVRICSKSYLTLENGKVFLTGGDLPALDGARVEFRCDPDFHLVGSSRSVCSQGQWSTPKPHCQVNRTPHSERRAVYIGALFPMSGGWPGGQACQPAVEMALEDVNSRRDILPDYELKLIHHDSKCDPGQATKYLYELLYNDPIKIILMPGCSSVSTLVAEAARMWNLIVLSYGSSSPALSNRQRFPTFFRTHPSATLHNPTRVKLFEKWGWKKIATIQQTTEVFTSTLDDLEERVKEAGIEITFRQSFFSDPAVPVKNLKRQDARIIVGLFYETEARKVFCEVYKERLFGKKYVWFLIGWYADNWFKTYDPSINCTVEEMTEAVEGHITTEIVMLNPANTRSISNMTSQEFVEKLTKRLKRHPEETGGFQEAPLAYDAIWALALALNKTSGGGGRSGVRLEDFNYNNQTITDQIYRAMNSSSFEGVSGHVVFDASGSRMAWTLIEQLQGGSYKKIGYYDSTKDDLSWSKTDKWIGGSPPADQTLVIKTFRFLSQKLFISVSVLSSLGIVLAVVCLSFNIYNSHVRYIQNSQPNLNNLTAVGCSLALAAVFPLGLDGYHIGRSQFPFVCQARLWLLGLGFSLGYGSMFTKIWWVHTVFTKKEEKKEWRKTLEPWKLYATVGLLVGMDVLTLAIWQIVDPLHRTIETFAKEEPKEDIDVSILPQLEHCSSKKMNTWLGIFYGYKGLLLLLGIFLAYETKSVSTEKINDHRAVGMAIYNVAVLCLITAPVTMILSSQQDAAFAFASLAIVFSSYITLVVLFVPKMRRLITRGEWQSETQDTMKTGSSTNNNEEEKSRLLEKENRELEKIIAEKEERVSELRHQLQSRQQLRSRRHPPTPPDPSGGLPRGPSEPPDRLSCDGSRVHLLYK
Sequence of GABA B receptor (O88871 whole entry): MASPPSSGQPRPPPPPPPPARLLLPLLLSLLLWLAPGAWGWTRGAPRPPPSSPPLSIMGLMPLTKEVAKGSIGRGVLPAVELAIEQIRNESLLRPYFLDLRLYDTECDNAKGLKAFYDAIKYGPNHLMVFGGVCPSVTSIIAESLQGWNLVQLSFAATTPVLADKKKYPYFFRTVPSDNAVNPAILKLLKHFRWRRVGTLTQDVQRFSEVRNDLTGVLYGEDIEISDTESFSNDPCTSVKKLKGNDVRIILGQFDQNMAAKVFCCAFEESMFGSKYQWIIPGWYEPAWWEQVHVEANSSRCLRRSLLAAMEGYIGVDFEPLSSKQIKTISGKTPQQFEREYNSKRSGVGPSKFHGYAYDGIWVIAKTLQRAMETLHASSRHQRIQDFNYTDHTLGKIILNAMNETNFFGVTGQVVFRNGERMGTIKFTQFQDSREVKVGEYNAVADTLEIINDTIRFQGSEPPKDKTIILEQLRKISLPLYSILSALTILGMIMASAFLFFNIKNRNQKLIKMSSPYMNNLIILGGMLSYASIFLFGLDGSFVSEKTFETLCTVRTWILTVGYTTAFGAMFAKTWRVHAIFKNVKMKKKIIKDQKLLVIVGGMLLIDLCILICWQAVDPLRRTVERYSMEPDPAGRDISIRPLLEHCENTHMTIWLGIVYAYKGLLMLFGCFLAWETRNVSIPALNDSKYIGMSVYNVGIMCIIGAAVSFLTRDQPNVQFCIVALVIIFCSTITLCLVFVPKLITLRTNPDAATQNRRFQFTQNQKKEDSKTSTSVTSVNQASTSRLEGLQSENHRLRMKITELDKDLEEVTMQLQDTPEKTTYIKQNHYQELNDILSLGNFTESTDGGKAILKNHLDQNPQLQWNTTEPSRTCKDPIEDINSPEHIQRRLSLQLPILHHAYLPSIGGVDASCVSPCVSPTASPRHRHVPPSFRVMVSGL

pKa [1] | logD [2] | IC50 (GABA B receptor) [mM] | Kb [3] | Log KB [4] | Compound
6.52 | -1.7 | > 1 | inactive |  | NCc1ccc(F)c(O)c1F
 | -3.1 |  |  |  | NCCCC(=O)O [GAMMA-AMINOBUTYRIC ACID]
6.98 | -1.7 | > 1 | 75.5 µM | -4.12 | NCc1cc(F)c(O)c(F)c1

Compound | pKa [1] | logD [2] | IC50 (GABA B receptor) [mM] | Kb [3] | Log KB [4]
CP(=O)(O)C1=CCNCC1 |  | -3.7 |  |  | 
